Assays:
[1] = target: T1, recombinant human Meningioma Expressed Antigen 5 (MGEA5), also referred to as O-GcNAcase (OGA) (Homo sapiens, UniProt O60502); experiment: OGA biochemical assay (inhibition of FM-GlcNAc hydrolysis, fluorescence); conditions: FM-GlcNAc substrate; for Emax: read-out: Enzymatic Emax (%); for IC50: read-out: Enzymatic hOGA, pIC50 (converted)
T1 construct: Full length OGA enzyme was purchased at OnGene (cat #TP322411); purchased OnGene (so in the source)
T1 sequence (O60502 1-916): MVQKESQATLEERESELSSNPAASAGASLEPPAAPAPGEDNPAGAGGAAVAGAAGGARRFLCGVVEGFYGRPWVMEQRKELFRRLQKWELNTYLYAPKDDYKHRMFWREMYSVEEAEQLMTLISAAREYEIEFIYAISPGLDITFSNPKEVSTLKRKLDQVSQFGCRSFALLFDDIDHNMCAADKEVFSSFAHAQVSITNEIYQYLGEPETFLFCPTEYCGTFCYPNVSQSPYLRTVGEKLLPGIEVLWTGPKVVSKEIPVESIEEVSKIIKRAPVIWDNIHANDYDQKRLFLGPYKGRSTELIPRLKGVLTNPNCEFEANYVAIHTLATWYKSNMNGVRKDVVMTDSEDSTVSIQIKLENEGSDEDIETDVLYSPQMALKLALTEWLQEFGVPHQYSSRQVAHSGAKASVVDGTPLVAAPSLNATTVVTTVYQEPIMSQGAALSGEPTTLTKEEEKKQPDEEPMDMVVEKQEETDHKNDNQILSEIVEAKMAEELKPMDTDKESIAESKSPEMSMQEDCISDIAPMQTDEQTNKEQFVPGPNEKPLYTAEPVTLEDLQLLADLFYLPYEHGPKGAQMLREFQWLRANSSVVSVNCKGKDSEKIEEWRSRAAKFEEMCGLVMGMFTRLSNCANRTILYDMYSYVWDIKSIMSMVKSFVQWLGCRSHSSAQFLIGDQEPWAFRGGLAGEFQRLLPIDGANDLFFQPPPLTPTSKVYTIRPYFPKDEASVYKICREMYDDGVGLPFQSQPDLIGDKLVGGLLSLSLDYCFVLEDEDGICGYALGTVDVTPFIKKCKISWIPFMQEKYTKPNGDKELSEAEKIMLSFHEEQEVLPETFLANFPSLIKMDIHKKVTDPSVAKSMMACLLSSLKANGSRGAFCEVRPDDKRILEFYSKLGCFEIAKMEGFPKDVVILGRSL
Source text: The assay is based on the inhibition of the hydrolysis of fluorescein mono-β-D-N-Acetyl-Glucosamine (FM-GlcNAc) (Mariappa et al. 2015, Biochem J 470:255) by the recombinant human Meningioma Expressed Antigen 5 (MGEA5), also referred to as O-GcNAcase (OGA). The hydrolysis FM-GlcNAc (Marker Gene technologies, cat #M1485) results in the formation of B-D-N-glucosamineacetate and fluorescein. The fluorescence of the latter can be measured at excitation wavelength 485 nm and emission wavelength 538 nm. An increase in enzyme activity results in an increase in fluorescence signal. Full length OGA enzyme was purchased at OnGene (cat #TP322411). The enzyme was stored in 25 mM Tris.HCl, pH 7.3, 100 mM glycine, 10% glycerol at −20° C. Thiamet G and GlcNAcStatin were tested as reference compounds (Yuzwa et al. 2008 Nature Chemical Biology 4:483; Yuzwa et al. 2012 Nature Chemical Biology 8:393). The assay was performed in 200 mM Citrate/phosphate buffer supplemented with 0.005% Tween-20. 35.6 g Na2HPO4 2H2O (Sigma, #C0759) were dissolved in 1 L water to obtain a 200 mM solution. 19.2 g citric acid (Merck, #1.06580) was dissolved in 1 L water to obtain a 100 mM solution. pH of the sodiumphosphate solution was adjusted with the citric acid solution to 7.2. The buffer to stop the reaction consists of a 500 mM Carbonate buffer, pH 11.0. 734 mg FM-GlcNAc were dissolved in 5.48 mL DMSO to obtain a 250 mM solution and was stored at −20° C. OGA was used at a 2 nM concentration and FM-GlcNAc at a 100 uM final concentration. Dilutions were prepared in assay buffer.
50 nl of a compound dissolved in DMSO was dispensed on Black Proxiplate TM 384 Plus Assay plates (Perkin Elmer, #6008269) and 3 μl fl-OGA enzyme mix added subsequently. Plates were pre-incubated for 60 min at room temperature and then 2 μl FM-GlcNAc substrate mix added. […] Plates were briefly centrifuged for 1 min at 1000 rpm and incubate at room temperature for 6 h. To stop the reaction 5 μl STOP buffer were added and plates centrifuge again 1 min at 1000 rpm. Fluorescence was quantified in the Thermo Scientific Fluoroskan Ascent or the PerkinElmer EnVision with excitation wavelength 485 nm and emission wavelength 538 nm.
For analysis a best-fit curve is fitted by a minimum sum of squares method. From this an IC50 value and Hill coefficient was obtained. High control (no inhibitor) and low control (saturating concentrations of standard inhibitor) were used to define the minimum and maximum values.

OGA = target: T2, OGA (Homo sapiens, UniProt O60502); experiment: OGA cellular assay (ICC detection of O-GlcNAcylated proteins in HEK293 cells inducible for P301L mutant human Tau); type: cell-based; conditions: 6 hours incubation; for Emax: HEK293, HEK293 cells inducible for P301L mutant human Tau; for EC50: read-out: Cellular hOGA, pEC50 (converted)
T2 construct: endogenous in cells; host or cells: HEK293 cells inducible for P301L mutant human Tau (isoform 2N4R)
T2 sequence (O60502 1-916): T1 sequence (O60502 1-916)
Experimental: HEK293 cells inducible for P301L mutant human Tau (isoform 2N4R) were established at Janssen. Thiamet-G was used for both plate validation (high control) and as reference compound (reference EC50 assay validation). OGA inhibition is evaluated through the immunocytochemical (ICC) detection of O-GlcNAcylated proteins by the use of a monoclonal antibody (CTD110.6; Cell Signaling, #9875) detecting O-GlcNAcylated residues as previously described (Dorfmueller et al. 2010 Chemistry & biology, 17:1250). Inhibition of OGA will result in an increase of O-GlcNAcylated protein levels resulting in an increased signal in the experiment. Cell nuclei are stained with Hoechst to give a cell culture quality control and a rough estimate of immediate compounds toxicity, if any. ICC pictures are imaged with a Perkin Elmer Opera Phenix plate microscope and quantified with the provided software Perkin Elmer Harmony 4.1.
Cells were propagated in DMEM high Glucose (Sigma, #D5796) following standard procedures. 2 days before the cell assay cells are split, counted and seeded in Poly-D-Lysine (PDL) coated 96-wells (Greiner, #655946) plate at a cell density of 12,000 cells per cm^2 (4,000 cells per well) in 100 μl of Assay Medium (Low Glucose medium is used to reduce basal levels of GlcNAcylation) (Park et al. 2014 The Journal of biological chemistry 289:13519). At the day of compound test medium from assay plates was removed and replenished with 90 μl of fresh Assay Medium. 10 μl of compounds at a 10 fold final concentration were added to the wells. Plates were centrifuged shortly before incubation in the cell incubator for 6 hours. DMSO concentration was set to 0.2%. Medium is discarded by applying vacuum. For staining of cells medium was removed and cells washed once with 100 μl D-PBS (Sigma, #D8537). From next step onwards unless other stated assay volume was always 50 μl and incubation was performed without agitation and at room temperature. Cells were fixed in 50 μl of a 4% paraformaldehyde (PFA, Alpha aesar, #043368) PBS solution for 15 minutes at room temperature. […] Before analysis samples were washed 2 times manually for 5 minutes in ICC base buffer.
Imaging is performed using Perkin Elmer Phenix Opera using a water 20×objective and recording 9 fields per well. Intensity readout at 488 nm is used as a measure of O-GlcNAcylation level of total proteins in wells. To assess potential toxicity of compounds nuclei were counted using the Hoechst staining. IC50-values are calculated using parametric non-linear regression model fitting. As a maximum inhibition Thiamet G at a 200 uM concentration is present on each plate. In addition, a concentration response of Thiamet G is calculated on each plate.

[2] = HEK293 cells inducible for P301L mutant human Tau

| SMILES | Emax [1] [%] | IC50 [1] [µM] | Emax (OGA; maximum = Thiamet G 200 uM) [%] | EC50 (OGA; [2]) [µM] | Enzymatic Emax (%) [1] [%] | Enzymatic hOGA; pIC50 [1] | Cellular hOGA; pEC50 (OGA; [2]) | Cellular Emax (%) (OGA; HEK293 cells inducible for P301L mutant human Tau, maximum = Thiamet G 200 uM) |
| --- | --- | --- | --- | --- | --- | --- | --- | --- |
| Cc1cc(C[C@H]2CCCN(C(C)c3cc(C4CC4)[nH]n3)C2)cc(C)n1 (mixture of isomers) [Product 21] | 101 | 0.0245 | 59 | 0.468 | – | – | – | – |
| CCOc1cnc(C(C)N2CCC[C@H](Cc3cc(C)nc(C)c3)C2)o1 (mixture of isomers) [Product 30] | 101 | 0.0102 | 60 | 0.49 | – | – | – | – |
| CCC(=O)Nc1cncc(C(C)N2CCC[C@H](Cc3cc(C)nc(C)c3)C2)c1 (mixture of isomers) [Product 38] | 99 | 0.0708 | 3 | > 1 | – | – | – | – |
| CNC(=O)c1cncc(C(C)N2CCC[C@H](Cc3cc(C)nc(C)c3)C2)c1 (mixture of isomers) [Product 40] | 101 | 0.0115 | 72 | 0.407 | – | – | – | – |
| COc1cncc(C(C)N2CCC[C@H](Cc3cc(C)nc(C)c3)C2)c1 (mixture of isomers) [Product 43] | 101 | 0.038 | 53 | 0.933 | – | – | – | – |
| CCOc1cncc(C(C)N2CCC[C@H](Cc3cc(C)nc(C)c3)C2)c1 (mixture of isomers) [Product 44] | 100 | 0.0269 | 41 | > 1 | – | – | – | – |
| CC(=O)Nc1cc(C(C)N2CCC[C@H](Cc3cc(C)nc(C(F)(F)F)c3)C2)n[nH]1 (mixture of isomers) [Product 70] | 101 | 0.0525 | 57 | 0.525 | – | – | – | – |
| COc1cc(C[C@H]2CCCN(C(C)c3nc(OC)ccc3F)C2)cc(C(F)(F)F)n1 (mixture of isomers) [Product 79] | 104 | 0.0437 | 8 | > 1 | – | – | – | – |
| COc1cc(NC[C@H]2CCCN(C(C)c3nc(OC)ccc3F)C2)cc(C)n1 (mixture of isomers) [Product 90] | 102 | 0.0123 | 79 | 0.117 | – | – | – | – |
| COc1ccc(F)c(C(C)N2CC[C@H](Cc3cc(C)nc(C)c3)C2)n1 (mixture of isomers) [Product 100] | 97 | 0.912 | 10 | > 1 | – | – | – | – |
| CC(=O)Nc1cc(C(C)N2CC[C@H](Cc3cc(C)nc(C(F)(F)F)c3)C2)n[nH]1 (mixture of isomers) [Product 122] | 92 | 1 | 17 | > 1 | – | – | – | – |
| COc1cc(C(C)N2CC[C@H](Cc3cc(C)nc(OC)c3)C2)c(F)cn1 (mixture of isomers) [Product 130] | 95 | 0.871 | 4 | > 1 | – | – | – | – |
| CC(=O)Nc1ccc(C(C)N2CCC[C@H](Cc3cc(C)nc(C)c3)C2)s1 (mixture of isomers) [Product 134] | 101 | 0.00468 | 59 | 0.24 | – | – | – | – |
| CC(=O)Nc1nc(C(C)N2CCC[C@H](Cc3cc(C)nc(C)c3)C2)c[nH]1 (mixture of isomers) [Product 136] | 102 | 0.11 | 12 | > 1 | – | – | – | – |
| CC(=O)Nc1cc(C(C)N2CCC[C@H](Cc3cc(C)nc(C)c3)C2)n[nH]1 (stereo in doubt) [Product 3] | 102 | 0.00257 | 84 | 0.0479 | – | – | – | – |
| CC(=O)Nc1cc(CN2CCC[C@H](Cc3cc(C)nc(C)c3)C2)n[nH]1 [Product 1] | 101 | 0.0214 | 56 | 0.692 | – | – | – | – |
| CC(=O)Nc1cc([C@H](C)N2CCC[C@H](Cc3cc(C)nc(C)c3)C2)n[nH]1 [Product 5] | – | – | – | – | 104 | 8.91 | 7.44 | 80 |
| CC(=O)Nc1nc(CN2CCC[C@H](Cc3cc(C)nc(C)c3)C2)c[nH]1 [Product 135] | 98 | 0.49 | – | – | – | – | – | – |
| CC(=O)Nc1cc(C(C)N2CCCC(Oc3cc(C)nc(C(F)(F)F)c3)C2)n[nH]1 (stereo not shown) [Product 138] | 81 | 2.45 | – | – | – | – | – | – |
| CC(=O)Nc1ncc(CN2CCC[C@H](Cc3cc(C)nc(C)c3)C2)n1C [Product 159] | – | > 10 | – | – | – | – | – | – |
| COc1ccc(C)c(CN2CCC[C@H](Cc3cc(C)nc(C)c3)C2)n1 [Product 160] | 24 | > 10 | – | – | – | – | – | – |
| CCOc1cc(CN2CCC[C@H](Cc3cc(C)nc(C)c3)C2)n(C)n1 [Product 161] | 52 | > 10 | – | – | – | – | – | – |
| Cc1cc(C[C@H]2CCCN(Cc3cnc(C4CC4)[nH]3)C2)cc(C)n1 [Product 165] | 24 | > 10 | – | – | – | – | – | – |

Source: US20210300900A1, “OGA INHIBITOR COMPOUNDS” (Janssen Pharmaceutica NV, priority 2018, published 2021)
